The text below walks through data of US20260337189A1, “Cryptolepine Salt Derivative, Preparation Method, and Use Thereof” (ZHEJIANG XINNONG CHEMICAL CO., LTD., priority 2023, published 2026).

The test system of one experiment is rice sheath blight. The experiment can be described thus: Test of resistance to rice sheath blight (bactericidal activity test). The conditions noted are these: for Resistance to rice sheath blight: 400 mg/L, rice seedlings, sprayed 24 h before inoculation, 6 days after inoculation, visual inspection; for bactericidal activity against rice sheath blight: live pot test, Table 5, 400 mg/L. The experiment is classed as in vivo. The protocol:
Bactericidal activity test, the determination procedure is as follows:
Test of resistance to rice sheath blight: Select uniformly growing rice seedlings and spray them on the leaves at the set concentration, set a water spraying group as blank control, every treatment was repeated twice. After 24 h, the rice seedlings were inoculated with rice sheath blight strains and placed at room temperature (25±4° C.) for normal management after inoculation. The prevention and control effect was investigated by visual inspection 6 days after inoculation.

Experiment [1] has as its system tobacco Mosaic virus (TMV). The experiment in a line: Anti-tobacco Mosaic virus (TMV) activity, overall comparison of Test Example 1. It counts as in vivo. Conditions: 500 μg/mL; Table 4. The method, then:
Determination of anti-tobacco Mosaic virus (TMV) activity by the following procedure:
After weighing, cryptolepine salt derivative, ningnanmycin and the original drug of ribavirin were dissolved in DMF to obtain 1×10^5 μg/mL mother solution, and then diluted to the required concentration with 1%. Tween 80 aqueous solution.
Select the 3-5 leaf stage of tobacco Xanthi nc with uniform growth, spray the whole plant, repeat each treatment 3 times, and set 1%. Tween80 aqueous solution as control. 24 h later, the leaf surface was coated with emery (500 mesh), the disease venom was dipped with a brush, and the whole leaf surface was gently rubbed twice along the direction of the branch pulse by using the brush, the leaf was supported by palm of hand, the virus concentration was 10 μg/mL, and the leaf was washed by water after inoculation. After 3 days, the number of disease spots was recorded and the prevention and control effect was calculated.
Select the 3-5 leaf stage of tobacco Xanthi nc with uniform growth, use a brush to vaccinate the virus in the whole leaf, the virus concentration is 10 μg/mL, and the leaf was washed with running water after inoculation. After the leaves were dried, the whole plant was sprayed with test sample, repeated 3 times every treatment, and 1%. Tween 80 aqueous solution was set as control. After 3 days, the number of disease spots was recorded and the prevention and control effect was calculated.
Select the 3-5 leaf stage of tobacco Xanthi nc with uniform growth, mix the test sample agent with the same volume of virus juice to passivate for 30 min, friction inoculation, virus concentration 20 μg/mL, the leaf was washed with running water after inoculation, repeat 3 times, set 1%. Tween 80 aqueous solution as control. 3 days later, the number of disease spots was calculated.
Relative inhibition rate (%)=[(number of dead spots of control group-number of dead spots of test sample group)/number of dead spots of control group]×100%.
Anti-tobacco Mosaic virus passivation activity test of all compounds was at a treatment dose of 500 μg/mL. The positive control was the commercial anti-plant virus agent viriazole.

As to `Cc1ccc(S(=O)(=O)n2c3ccccc3c3c2cc2ccccc2[n+]3C)cc1.[Cl-]` [Example 1], in the experiment on rice sheath blight, the “Resistance to rice sheath blight” value worked out at 95 ± 5% and the “bactericidal activity against rice sheath blight” value (“bactericidal activity” for short) was “more than 95%”. On to `Cc1ccc(S(=O)(=O)n2c3ccc(C)cc3c3c2cc2ccccc2[n+]3C)cc1.[Cl-]` [Example 2], for which the “Resistance to rice sheath blight” value in the experiment with rice sheath blight was found to be 40 ± 0%. For the compound `COc1ccc2c(c1)c1c(cc3ccccc3[n+]1C)n2S(=O)(=O)c1ccc(C)cc1.[Cl-]` [Example 3], the “Resistance to rice sheath blight” value in the experiment on rice sheath blight amounted to 35 ± 5%. For `Cc1ccc(S(=O)(=O)n2c3ccc(Cl)cc3c3c2cc2ccccc2[n+]3C)cc1.[Cl-]` [Example 5], in the experiment on rice sheath blight, the “Resistance to rice sheath blight” value amounted to 55 ± 5% and the “bactericidal activity” value is reported as “more than 50%”. In addition, in experiment [1], the “TMV activity compared with ribavirin” value is given as “better TMV activity than the ribavirin” and the “anti-TMV activity compared with commercial Ningnanmycin” value is reported as “comparable to that of commercial Ningnanmycin”. Turning to `Cc1ccc(S(=O)(=O)n2c3ccc(Br)cc3c3c2cc2ccccc2[n+]3C)cc1.[Cl-]` [Example 6], the “Resistance to rice sheath blight” value in the experiment on rice sheath blight is reported as 40 ± 0%. Besides, in experiment [1], the “TMV activity compared with ribavirin” value is recorded as “better TMV activity than the ribavirin” and the “anti-TMV activity compared with commercial Ningnanmycin” value was “comparable to that of commercial Ningnanmycin”. For the compound `Cc1ccc(S(=O)(=O)n2c3ccc(C#N)cc3c3c2cc2ccccc2[n+]3C)cc1.[Cl-]` [Example 8], the “Resistance to rice sheath blight” value in the experiment on rice sheath blight is 30 ± 0%. `Cc1ccc(S(=O)(=O)n2c3ccccc3c3c2cc2cc(C)ccc2[n+]3C)cc1.[Cl-]` [Example 9]: in the experiment with rice sheath blight, the “Resistance to rice sheath blight” value is 70 ± 0% and the “bactericidal activity” value is given as “more than 50%”. In the case of `COc1ccc2c(c1)cc1c(c3ccccc3n1S(=O)(=O)c1ccc(C)cc1)[n+]2C.[Cl-]` [Example 10], in the experiment on rice sheath blight, the “Resistance to rice sheath blight” value amounted to 30 ± 0%. Same read-out and setting: under `Cc1ccc(S(=O)(=O)n2c3ccccc3c3c2cc2cc(F)ccc2[n+]3C)cc1.[Cl-]` [Example 11] stands 40 ± 0%; under `Cc1ccc(S(=O)(=O)n2c3ccccc3c3c2cc2cc(Cl)ccc2[n+]3C)cc1.[Cl-]` [Example 12], 40 ± 0%. As to `Cc1ccc(S(=O)(=O)n2c3ccccc3c3c2cc2cc(Br)ccc2[n+]3C)cc1.[Cl-]` [Example 13], in the experiment with rice sheath blight, the “Resistance to rice sheath blight” value is listed as 35 ± 5%. For the same compound, in experiment [1], the “TMV activity compared with ribavirin” value is recorded as “better TMV activity than the ribavirin” and the “anti-TMV activity compared with commercial Ningnanmycin” value was “comparable to that of commercial Ningnanmycin”. For the compound `Cc1ccc(S(=O)(=O)n2c3ccccc3c3c2cc2cc(C(F)(F)F)ccc2[n+]3C)cc1.[Cl-]` [Example 14], in the experiment with rice sheath blight, the “Resistance to rice sheath blight” value is 60 ± 0% and the “bactericidal activity” value was “more than 50%”.

As to `COC(=O)c1ccc2c(c1)cc1c(c3ccccc3n1S(=O)(=O)c1ccc(C)cc1)[n+]2C.[Cl-]` [Example 15], in the experiment with rice sheath blight, the “Resistance to rice sheath blight” value is reported as 40 ± 0%. In the case of `Cc1ccc(S(=O)(=O)n2c3ccccc3c3c2cc2ccc(C)cc2[n+]3C)cc1` [Example 16], in the experiment on rice sheath blight, the “Resistance to rice sheath blight” value is listed as 95 ± 5% and the “bactericidal activity” value is “more than 95%”. For the compound `Cc1ccc(S(=O)(=O)n2c3ccccc3c3c2cc2ccc(Cl)cc2[n+]3C)cc1` [Example 17], in the experiment on rice sheath blight, the “Resistance to rice sheath blight” value is on record as 40 ± 0%. On to `Cc1ccc(S(=O)(=O)n2c3ccccc3c3c2cc2ccccc2[n+]3CC2CC2)cc1` [Example 18], for which, in the experiment with rice sheath blight, the “Resistance to rice sheath blight” value is reported as 45 ± 5% and the “bactericidal activity” value is “more than 50%”. In addition, the “TMV activity compared with ribavirin” value in experiment [1] is recorded as “better TMV activity than the ribavirin”. Regarding `Cc1ccc(S(=O)(=O)n2c3ccccc3c3c2cc2ccccc2[n+]3CC2CCCCC2)cc1` [Example 19], in the experiment with rice sheath blight, the “Resistance to rice sheath blight” value came to 20 ± 0%. The “TMV activity compared with ribavirin” value in experiment [1] is “better TMV activity than the ribavirin”. Take `Cc1ccc(S(=O)(=O)n2c3ccccc3c3c2cc2ccccc2[n+]3CC(C)(C)C)cc1` [Example 20]: in the experiment with rice sheath blight, the “Resistance to rice sheath blight” value was determined as 55 ± 5% and the “bactericidal activity” value was “more than 50%”. In addition, in experiment [1], the “TMV activity compared with ribavirin” value is “better TMV activity than the ribavirin” and the “anti-TMV activity compared with commercial Ningnanmycin” value is “comparable to that of commercial Ningnanmycin”. On to `Cc1ccc(S(=O)(=O)n2c3ccccc3c3c2cc2ccccc2[n+]3Cc2ccccc2)cc1` [Example 21], for which the “Resistance to rice sheath blight” value with rice sheath blight was 40 ± 0%. Further, in experiment [1], the “TMV activity compared with ribavirin” value is given as “better TMV activity than the ribavirin”.

Turning to `C[n+]1c2ccccc2cc2c1c1ccccc1n2S(=O)(=O)c1ccccc1` [Example 22], in the experiment with rice sheath blight, the “Resistance to rice sheath blight” value is 45 ± 5% and the “bactericidal activity” value is recorded as “more than 50%”. On to `CCCNc1c2ccccc2[n+](C)c2c1[nH]c1ccccc12` [Example 23], for which the “Resistance to rice sheath blight” value in the experiment with rice sheath blight turned out to be 30 ± 0%. For the compound `CC(C)CCNc1c2ccccc2[n+](C)c2c1[nH]c1ccccc12` [Example 26], the “Resistance to rice sheath blight” value with rice sheath blight was found to be 35 ± 5%. Also, the “TMV activity compared with ribavirin” value in experiment [1] is listed as “better TMV activity than the ribavirin”. With `CCCCC(CC)CNc1c2ccccc2[n+](C)c2c1[nH]c1ccccc12` (centres unmarked) [Example 27], in the experiment with rice sheath blight, the “Resistance to rice sheath blight” value came out at 30 ± 0%. In addition, in experiment [1], the “TMV activity compared with ribavirin” value is reported as “better TMV activity than the ribavirin” and the “anti-TMV activity compared with commercial Ningnanmycin” value was “comparable to that of commercial Ningnanmycin”. `C[n+]1c2ccccc2c(NCC2CC2)c2[nH]c3ccccc3c21` [Example 28]: in the experiment with rice sheath blight, the “Resistance to rice sheath blight” value was found to be 60 ± 0% and the “bactericidal activity” value was “more than 50%”. Consider `C[n+]1c2ccccc2c(NCC2CCCCC2)c2[nH]c3ccccc3c21` [Example 30], for which the “Resistance to rice sheath blight” value in the experiment on rice sheath blight was found to be 35 ± 5%. Same read-out and setting: under `C[n+]1c2ccccc2c(NCCCC2CCCCC2)c2[nH]c3ccccc3c21.[I-]` [Example 31] stands 25 ± 5%.

On to `C[n+]1c2ccccc2c(NCCN)c2[nH]c3ccccc3c21.[I-]` [Example 32], for which the “Resistance to rice sheath blight” value with rice sheath blight came out at 30 ± 0%. On to `C[n+]1c2ccccc2c(NCCCCN)c2[nH]c3ccccc3c21.[I-]` [Example 34], for which the “Resistance to rice sheath blight” value with rice sheath blight came to 20 ± 0%. In addition, in experiment [1], the “TMV activity compared with ribavirin” value is “better TMV activity than the ribavirin” and the “anti-TMV activity compared with commercial Ningnanmycin” value was “comparable to that of commercial Ningnanmycin”. Take `CC(N)CNc1c2ccccc2[n+](C)c2c1[nH]c1ccccc12.[I-]` (centres unmarked) [Example 35]: the “Resistance to rice sheath blight” value in the experiment on rice sheath blight came to 25 ± 5%. The “TMV activity compared with ribavirin” value in experiment [1] is “better TMV activity than the ribavirin”. Consider `C[n+]1c2ccccc2c(NCC(C)(C)N)c2[nH]c3ccccc3c21.[I-]` [Example 36], for which, in the experiment on rice sheath blight, the “Resistance to rice sheath blight” value turned out to be 35 ± 5%. With `CCNCCNc1c2ccccc2[n+](C)c2c1[nH]c1ccccc12.[I-]` [Example 37], the “Resistance to rice sheath blight” value in the experiment on rice sheath blight is 40 ± 0%. Regarding `CNCCCNc1c2ccccc2[n+](C)c2c1[nH]c1ccccc12.[I-]` [Example 38], the “Resistance to rice sheath blight” value in the experiment with rice sheath blight stood at 30 ± 0%.

Regarding `CN(C)CC(C)(C)CNc1c2ccccc2[n+](C)c2c1[nH]c1ccccc12.[I-]` [Example 39], the “Resistance to rice sheath blight” value in the experiment with rice sheath blight amounted to 25 ± 5%. Regarding `C[n+]1c2ccccc2c(NC2CCNC2)c2[nH]c3ccccc3c21.[I-]` (centres unmarked) [Example 40], the “Resistance to rice sheath blight” value in the experiment on rice sheath blight was found to be 20 ± 0%. Besides, the “TMV activity compared with ribavirin” value in experiment [1] is “better TMV activity than the ribavirin”.

On to `C[n+]1c2ccccc2c(NCC2CCCNC2)c2[nH]c3ccccc3c21.[I-]` (centres unmarked) [Example 43], for which, in the experiment on rice sheath blight, the “Resistance to rice sheath blight” value was determined as 30 ± 0%. For `CN1CCC(Nc2c3ccccc3[n+](C)c3c2[nH]c2ccccc23)CC1.[I-]` [Example 44], in the experiment with rice sheath blight, the “Resistance to rice sheath blight” value came out at 55 ± 5% and the “bactericidal activity” value is on record as “more than 50%”. With `CN1CCC(CNc2c3ccccc3[n+](C)c3c2[nH]c2ccccc23)CC1.[I-]` [Example 45], the “Resistance to rice sheath blight” value with rice sheath blight was 30 ± 0%. With `C[n+]1c2ccccc2cc2[nH]c3ccc(Br)cc3c21` [Reference Example 1, 5-methyl-7-bromo 5H-indolo[3,2-b]quinoline, reference compound], in the experiment on rice sheath blight, the “Resistance to rice sheath blight” value was found to be 0%. Same read-out and setting: for `C[n+]1c2ccccc2c(N2CCN(CCN)CC2)c2[nH]c3ccc(Cl)cc3c21.[I-]` [Reference Example 2, 11-(4′-(2-aminoethyl)-piperazinyl) substituted cryptolepine iodide salt, reference compound] the value was 0%; for `Cc1nc(C(F)(F)F)c(C(=O)Nc2c(Br)cc(OC(F)(F)F)cc2Br)s1` [Thifluzamide, thifluzamide, reference compound], 100%.
